System: ApoE mouse
Assay: PET imaging of [^18F]NP-59 in a control BL6 mouse and an ApoE mouse
Assay type: in vivo
Procedure: [^18F]NP-59 was injected into a control BL6 mouse and an ApoE mouse of similar weight. Equivalent activities were injected into each mouse, and PET images taken approximately 60 minutes after injection are shown in FIG. 1. The images are PET maximal intensity projection images in the oblique coronal plane to obtain relevant anatomic structures. In the upper right-hand corner of each image are axial images through the carotid artery.

SMILES: CC(C)CCC[C@@H](C)[C@H]1CCC2C3C[C@@H](C[18F])C4=C(CC[C@H](O)C4)C3CC[C@@]21C (stereo partly drawn) [[^18F]NP-59]
- differential uptake between the mice (PET) (ApoE mouse (atherosclerotic disease) vs control BL6 mouse, equivalent activities injected, PET approximately 60 minutes after injection): higher uptake in the ApoE mouse
- background uptake (PET) (ApoE mouse vs BL6 mouse of similar weight, identical amounts of tracer injected): higher background uptake
- organs showing uptake of the compound (PET images) (BL6 and ApoE mice, PET approximately 60 minutes after injection): uptake of the compound in the liver, adrenal glands, and liver
